One may read the IC50 as the concentration that inhibits the measured activity by half.

The structures appear in SMILES notation.

Common to all, as to type: cell-based
Data set [1] is described as follows: In vitro cytotoxicity test on normal cells, SRB assay, 72 h incubation with compound. Conditions: mouse, balb/3t3 cells, normal murine fibroblasts, read-out: IC50 BALB/3T3. The method, then: Normal murine BALB/3T3 fibroblasts were also used in the tests for determining the selectivity coefficients of the compounds used in the assays.
(§1) In vitro cytotoxicity tests were performed according to the procedure described below. […] The solvent for further dilutions was a culture medium.
(§2) The experiments were repeated at least 3 times.

Data set [2] deals with MV-4-11 (human biphenotypic leukaemia). The data set can be described thus: In vitro cytotoxicity test, MTT assay, 72 h incubation with compound. Particulars: for IC50: MV-4-11 human biphenotypic leukaemia, MTT, 72 h; for SI MV-4-11: selectivity coefficient, BALB/3T3 versus MV-4-11. The method, then:
as §1, §2
After 4 hours of incubation at 37° C., 80 μL of lysis buffer was added to each well.

For data set [3], the system named is LoVo (drug-sensitive human colon cancer). Nature of the data set: In vitro cytotoxicity test, SRB assay, 72 h incubation with compound. Conditions: for IC50: LoVo drug-sensitive human colon cancer, SRB, 72 h; for SI LoVo: selectivity coefficient, BALB/3T3 versus LoVo. The method, then:
as §1, §2

For data set [4], the system named is MCF-7 (human breast cancer). The description is as above. Conditions: for IC50: MCF-7 human breast cancer, SRB, 72 h; for SI MCF-7: selectivity coefficient, BALB/3T3 versus MCF-7. The procedure: as §1, §2
Data set [5] deals with B16-F0 (murine melanoma). The description is as above. Conditions: for IC50: B16-F0 murine melanoma, SRB, 72 h; for SI B16-F0: selectivity coefficient, BALB/3T3 versus B16-F0. The method, then: as §1, §2
In data set [6] the test system is Hs294T (human melanoma). The data set is described as above. Particulars: for IC50: Hs294T human melanoma, SRB, 72 h; for SI Hs294T: selectivity coefficient, BALB/3T3 versus Hs294T. The method, then: as §1, §2
In data set [7] the test system is LoVo/DX (drug-resistant human colon cancer). The description is as above. Conditions: for IC50: LoVo/DX drug-resistant human colon cancer, SRB, 72 h; for RI: drug resistance coefficient, LoVo/DX versus LoVo, 4320 min; for SI LoVo/DX: selectivity coefficient, BALB/3T3 versus LoVo/DX. The procedure:
as §1, §2

Regarding `CC[C@@H](C(=O)[C@@H](C)[C@@H](O)[C@H](C)[C@@H]1O[C@@H]([C@@H](CC)C(=O)O)CC[C@@H]1C)[C@H]1O[C@]2(C=C[C@@H](N)[C@]3(CC[C@@](C)([C@H]4CC[C@](O)(CC)[C@H](C)O4)O3)O2)[C@H](C)C[C@@H]1C` [(3), C20-aminosalinomycin, reference compound], the CC50 at 72 h in data set [1] amounted to 66400 nM. Moreover, the IC50 in data set [2] (MV4-11) worked out at 5920 nM; in data set [3], 33100 nM; in data set [4] (MCF7), 34900 nM; in data set [5] (Mus musculus, B16F0), 9440 nM; in data set [6] (Hs 294T), 9730 nM; in data set [7], 20500 nM. Further, the “SI MV-4-11” value in data set [2] turned out to be 11.2. For the same compound, the “SI LoVo” value in data set [3] amounted to 2.0. Besides, the “SI MCF-7” value in data set [4] came to 1.9. For the same compound, the “SI B16-F0” value in data set [5] worked out at 7.0. Further, the “SI Hs294T” value in data set [6] was determined as 6.8. In addition, in data set [7], the RI is 0.6. The “SI LoVo/DX” value in data set [7] worked out at 3.2.
As to `CC[C@@H](C(=O)[C@@H](C)[C@@H](O)[C@H](C)[C@@H]1O[C@@H]([C@@H](CC)C(=O)O)CC[C@@H]1C)[C@H]1O[C@]2(C=C[C@@H](NC(=O)CCl)[C@]3(CC[C@@](C)([C@H]4CC[C@](O)(CC)[C@H](C)O4)O3)O2)[C@H](C)C[C@@H]1C` [(11), C20-dehydroxy-C20-aminosalinomycin N-chloroacetamide], in data set [1], the CC50 at 72 h was 2590 nM. The half-maximal inhibitory concentration (IC50) in data set [2] (MV4-11) worked out at 280 nM; in data set [3] it was 930 nM; in data set [4] (MCF7), 810 nM; in data set [5] (Mus musculus, B16F0) it was 400 nM; in data set [6] (Hs 294T), 60 nM; in data set [7] it was 620 nM. For the same compound, the “SI MV-4-11” value in data set [2] is reported as 9.2. For the same compound, the “SI LoVo” value in data set [3] is 2.8. Moreover, the “SI MCF-7” value in data set [4] was 3.2. The “SI B16-F0” value in data set [5] amounted to 6.5. The “SI Hs294T” value in data set [6] came to 43.2. For the same compound, the RI in data set [7] is recorded as 0.7. For the same compound, the “SI LoVo/DX” value in data set [7] worked out at 4.2.
With `CC[C@@H](C(=O)[C@@H](C)[C@@H](O)[C@H](C)[C@@H]1O[C@@H]([C@@H](CC)C(=O)O)CC[C@@H]1C)[C@H]1O[C@]2(C=C[C@@H](NC(=O)CCCCl)[C@]3(CC[C@@](C)([C@H]4CC[C@](O)(CC)[C@H](C)O4)O3)O2)[C@H](C)C[C@@H]1C` [(12), C20-dehydroxy-C20-aminosalinomycin N-4-chlorobutyramide], the CC50 at 72 h in data set [1] came to 17100 nM. Besides, the IC50 in data set [2] (MV4-11) is 200 nM; in data set [3], 630 nM; in data set [4] (MCF7), 900 nM; in data set [5] (Mus musculus, B16F0), 560 nM; in data set [6] (Hs 294T), 70 nM; in data set [7], 1550 nM. The “SI MV-4-11” value in data set [2] is given as 85.4. In data set [3], the “SI LoVo” value was 27.1. For the same compound, the “SI MCF-7” value in data set [4] is 19.0. Further, the “SI B16-F0” value in data set [5] is 30.5. For the same compound, the “SI Hs294T” value in data set [6] is given as 243.9. Moreover, in data set [7], the RI is recorded as 2.5. In data set [7], the “SI LoVo/DX” value was determined as 11.0.
Consider `CC[C@@H](C(=O)[C@@H](C)[C@@H](O)[C@H](C)[C@@H]1O[C@@H]([C@@H](CC)C(=O)O)CC[C@@H]1C)[C@H]1O[C@]2(C=C[C@@H](NC(=O)COC)[C@]3(CC[C@@](C)([C@H]4CC[C@](O)(CC)[C@H](C)O4)O3)O2)[C@H](C)C[C@@H]1C` [(13), C20-dehydroxy-C20-aminosalinomycin N-methoxyacetamide], for which, in data set [1], the CC50 at 72 h was found to be 14000 nM. The IC50 in data set [2] (MV4-11) is 270 nM; in data set [3] it was 670 nM; in data set [4] (MCF7), 1310 nM; in data set [5] (Mus musculus, B16F0), 530 nM; in data set [6] (Hs 294T), 60 nM; in data set [7] it was 2330 nM. Also, the “SI MV-4-11” value in data set [2] is 51.9. For the same compound, in data set [3], the “SI LoVo” value was 20.9. Moreover, in data set [4], the “SI MCF-7” value was determined as 10.7. Moreover, in data set [5], the “SI B16-F0” value amounted to 26.4. Moreover, in data set [6], the “SI Hs294T” value amounted to 233.5. In addition, the RI in data set [7] is 3.5. Also, in data set [7], the “SI LoVo/DX” value worked out at 6.0.
Regarding `N.N.[Cl][Pt][Cl]` [cisplatin, reference compound], the concentration for half-maximal inhibition (IC50) is 3400 nM in data set [2]; 6970 nM in data set [3]; 7170 nM in data set [4]; 3840 nM in data set [5]; 4010 nM in data set [6]; 8000 nM in data set [7]. Further, the RI in data set [7] is on record as 1.1.

The values are drawn from US12741974B2, “Compounds constituting C20-modified salinomycin derivatives, a method for obtaining the same, a composition containing the same, a use of said compounds and a method for obtaining an intermediate product” (FILECLO SP. Z O.O., priority 2020, dated 2021).
